PubChem BioAssay (NCI)
Where “and” joins values, the source holds several entries; their conditions need not be identical. Identical values can stand only once.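 Following 48 hours of exposure in 96-well plates, responses at five concentrations were used to interpolate endpoints linearly. At the GI50, growth is halved. TGI: concentration producing complete growth inhibition.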

Key:
Assay in all cases: inhibition of tumour cell growth, NCI panel, 48 h
[1] = tested on: 786-0 renal
[2] = tested on: A549 NSCLC
[3] = tested on: ACHN renal
[4] = tested on: CAKI-1 renal
[5] = tested on: CCRF-CEM leukemia
[6] = tested on: COLO 205 colon
[7] = tested on: DU-145 prostate
[8] = tested on: EKVX NSCLC
[9] = tested on: HCC-2998 colon
[10] = tested on: HCT-116 colon
[11] = tested on: HCT-15 colon
[12] = tested on: HL-60(TB) leukemia
[13] = tested on: HOP-62 NSCLC
[14] = tested on: HOP-92 NSCLC
[15] = tested on: HS 578T breast
[16] = tested on: HT29 colon
[17] = tested on: K-562 leukemia
[18] = tested on: KM12 colon
[19] = tested on: LOX IMVI melanoma
[20] = tested on: M14 melanoma
[21] = tested on: MALME-3M melanoma
[22] = tested on: MCF7 breast
[23] = tested on: MDA-MB-231 breast
[24] = tested on: MDA-MB-435
[25] = tested on: MDA-N
[26] = tested on: NCI-H226 lung
[27] = tested on: NCI-H23 lung
[28] = tested on: NCI-H522 lung
[29] = tested on: NCI/ADR-RES ovarian
[30] = tested on: OVCAR-3 ovarian
[31] = tested on: OVCAR-5 ovarian
[32] = tested on: OVCAR-8 ovarian
[33] = tested on: PC-3 prostate
[34] = tested on: RPMI-8226 leukemia
[35] = tested on: SF-268 CNS
[36] = tested on: SF-295 CNS
[37] = tested on: SF-539 CNS
[38] = tested on: SK-MEL-2 melanoma
[39] = tested on: SK-MEL-28 melanoma
[40] = tested on: SK-MEL-5 melanoma
[41] = tested on: SK-OV-3 ovarian
[42] = tested on: SN12C renal
[43] = tested on: SNB-19 CNS
[44] = tested on: SNB-75 CNS
[45] = tested on: SR leukemia
[46] = tested on: SW-620 colon
[47] = tested on: T-47D breast
[48] = tested on: TK-10 renal
[49] = tested on: U251 CNS
[50] = tested on: UACC-257 melanoma
[51] = tested on: UACC-62 melanoma
[52] = tested on: UO-31 renal
[53] = tested on: BT-549 breast
[54] = tested on: IGROV1 ovarian
[55] = tested on: MOLT-4 leukemia
[56] = tested on: NCI-H460 lung
[57] = tested on: OVCAR-4 ovarian
[58] = tested on: A498 renal
[59] = tested on: RXF 393 renal

For `CCC1(O)CC(OC2CC(N(C)C)C(OC3CC(O)C(OC4OC(C)C(=O)C=C4N)C(C)O3)C(C)O2)c2c(cc3c(c2O)C(=O)c2c(O)cccc2C3=O)C1C(=O)OC` (stereo not given), the TGI [1] was 97.1 nM, the TGI [2] was 1630 nM and the TGI [3] was 312 nM and 895 nM. For the same compound, the TGI [4] was 308 nM and 36.5 nM, the TGI [5] was 131 nM and 818 nM and the TGI [6] was 338 nM and 766 nM. For the same compound, the TGI [7] was 1700 nM and 1710 nM, the GI50 [8] was 32.7 nM and the TGI [8] was 539 nM and 1430 nM. The TGI [9] was 82.4 nM and 29.4 nM, the TGI [10] was 1790 nM and the GI50 [11] was 471 nM. For the same compound, the TGI [11] was 1660 nM and 11800 nM, the TGI [12] was 500 nM and 79 nM and the TGI [13] was 1140 nM and 344 nM. For the same compound, the GI50 [14] was 37.7 nM, the TGI [14] was 1410 nM and 2800 nM and the GI50 [15] was 57.9 nM. For the same compound, the TGI [15] was 594 nM and 4100 nM, the TGI [16] was 431 nM and 1240 nM and the TGI [17] was 262 nM and 1730 nM. The TGI [18] was 1130 nM and 1500 nM, the TGI [19] was 1480 nM and 1560 nM and the TGI [20] was 656 nM. The GI50 [21] was 20.8 nM, the TGI [21] was 233 nM and 137 nM and the TGI [22] was 756 nM and 2640 nM. The GI50 [23] was 36.9 nM, the TGI [23] was 2030 nM and 2090 nM and the TGI [24] was 282 nM and 50 nM. The TGI [25] was 207 nM and 139 nM, the GI50 [26] was 16.1 nM and the TGI [26] was 347 nM and 89.4 nM. For the same compound, the GI50 [27] was 14.4 nM, the TGI [27] was 2950 nM and the TGI [28] was 319 nM. For the same compound, the GI50 [29] was 1860 nM, the TGI [29] was 5500 nM and 27000 nM and the TGI [30] was 1180 nM and 624 nM. For the same compound, the GI50 [31] was 15.2 nM, the TGI [31] was 1370 nM and 2040 nM and the TGI [32] was 1590 nM and 1320 nM. The TGI [33] was 333 nM and 1100 nM, the TGI [34] was 154 nM and 59.7 nM and the GI50 [35] was 12.7 nM. For the same compound, the TGI [35] was 2890 nM and 1380 nM, the TGI [36] was 1530 nM and 1130 nM and the TGI [37] was 502 nM and 1400 nM. The TGI [38] was 104 nM and 11.8 nM, the TGI [39] was 363 nM and 189 nM and the TGI [40] was 179 nM and 101 nM. The TGI [41] was 2510 nM and 4320 nM, the GI50 [42] was 92.4 nM and the TGI [42] was 1510 nM and 2290 nM. It also gave a TGI [43] of 2050 nM, a TGI [44] of 555 nM and a TGI [45] of 1060 nM. For the same compound, the TGI [46] was 1760 nM and 1200 nM, the GI50 [47] was 22.1 nM and the TGI [47] was 657 nM and 1790 nM. For the same compound, the GI50 [48] was 39.8 nM, the TGI [48] was 1100 nM and 2310 nM and the TGI [49] was 1500 nM and 1550 nM. The TGI [50] was 553 nM and 356 nM, the TGI [51] was 170 nM and 32.4 nM and the GI50 [52] was 106 nM. The TGI [52] was 960 nM and 809 nM.
For `C(/C=N/NC1=NCCCCN1)=N\NC1=NCCCCN1`, the TGI [1] was greater than 100000 nM, the TGI [2] was greater than 100000 nM and the TGI [3] was greater than 100000 nM. The TGI [53] was greater than 100000 nM, the TGI [4] was greater than 100000 nM and the TGI [5] was greater than 100000 nM. It also gave a TGI [6] greater than 100000 nM, a TGI [8] greater than 100000 nM and a TGI [9] greater than 100000 nM. For the same compound, the TGI [10] was greater than 100000 nM, the TGI [13] was greater than 100000 nM and the TGI [14] was greater than 100000 nM. For the same compound, the TGI [15] was greater than 100000 nM, the TGI [16] was greater than 100000 nM and the TGI [54] was greater than 100000 nM. For the same compound, the TGI [17] was greater than 100000 nM, the TGI [18] was greater than 100000 nM and the TGI [19] was greater than 100000 nM. The TGI [20] was greater than 100000 nM, the TGI [21] was greater than 100000 nM and the TGI [22] was greater than 100000 nM. It also gave a TGI [23] greater than 100000 nM, a TGI [24] greater than 100000 nM and a TGI [25] greater than 100000 nM. For the same compound, the TGI [55] was greater than 100000 nM, the TGI [26] was greater than 100000 nM and the TGI [27] was greater than 100000 nM. The TGI [56] was greater than 100000 nM, the TGI [28] was greater than 100000 nM and the TGI [29] was greater than 100000 nM. The TGI [30] was greater than 100000 nM, the TGI [57] was greater than 100000 nM and the TGI [31] was greater than 100000 nM. The TGI [32] was greater than 100000 nM, the TGI [33] was greater than 100000 nM and the TGI [35] was greater than 100000 nM. The TGI [36] was greater than 100000 nM, the TGI [37] was greater than 100000 nM and the TGI [39] was greater than 100000 nM. For the same compound, the TGI [40] was greater than 100000 nM, the TGI [41] was greater than 100000 nM and the TGI [42] was greater than 100000 nM. It also gave a TGI [43] greater than 100000 nM, a TGI [44] greater than 100000 nM and a TGI [45] greater than 100000 nM. For the same compound, the TGI [46] was greater than 100000 nM, the TGI [47] was greater than 100000 nM and the TGI [48] was greater than 100000 nM. It also gave a TGI [49] greater than 100000 nM, a TGI [50] greater than 100000 nM and a TGI [51] greater than 100000 nM. The TGI [52] was greater than 100000 nM.
`Cc1cc(-n2nnc(C(=O)O)c2-c2ccccc2)c2ccc(Cl)cc2n1` showed a TGI [1] greater than 100000 nM, a TGI [58] greater than 100000 nM and a TGI [2] greater than 100000 nM. The TGI [3] was greater than 100000 nM, the TGI [53] was greater than 100000 nM and the TGI [4] was greater than 100000 nM. The TGI [5] was greater than 100000 nM, the TGI [6] was greater than 100000 nM and the TGI [7] was greater than 100000 nM. The TGI [8] was greater than 100000 nM, the TGI [9] was greater than 100000 nM and the TGI [10] was greater than 100000 nM. The TGI [11] was greater than 100000 nM, the TGI [12] was greater than 100000 nM and the TGI [14] was greater than 100000 nM. It also gave a TGI [15] greater than 100000 nM, a TGI [16] greater than 100000 nM and a TGI [54] greater than 100000 nM. For the same compound, the TGI [17] was greater than 100000 nM, the TGI [18] was greater than 100000 nM and the TGI [19] was greater than 100000 nM. The TGI [20] was greater than 100000 nM, the TGI [21] was greater than 100000 nM and the TGI [22] was greater than 100000 nM. The TGI [23] was greater than 100000 nM, the TGI [24] was greater than 100000 nM and the TGI [25] was greater than 100000 nM. The TGI [55] was greater than 100000 nM, the TGI [26] was greater than 100000 nM and the TGI [27] was greater than 100000 nM. For the same compound, the TGI [56] was greater than 100000 nM, the TGI [28] was greater than 100000 nM and the TGI [29] was greater than 100000 nM. For the same compound, the TGI [30] was greater than 100000 nM, the TGI [57] was greater than 100000 nM and the TGI [31] was greater than 100000 nM. The TGI [32] was greater than 100000 nM, the TGI [33] was greater than 100000 nM and the TGI [59] was greater than 100000 nM. For the same compound, the TGI [35] was greater than 100000 nM, the TGI [36] was greater than 100000 nM and the TGI [37] was greater than 100000 nM. It also gave a TGI [38] greater than 100000 nM, a TGI [39] greater than 100000 nM and a TGI [40] greater than 100000 nM. For the same compound, the TGI [41] was greater than 100000 nM, the TGI [42] was greater than 100000 nM and the TGI [43] was greater than 100000 nM. The TGI [44] was greater than 100000 nM, the TGI [46] was greater than 100000 nM and the TGI [47] was greater than 100000 nM. For the same compound, the TGI [48] was greater than 100000 nM, the TGI [49] was greater than 100000 nM and the TGI [50] was greater than 100000 nM. It also gave a TGI [51] greater than 100000 nM and a TGI [52] greater than 100000 nM.
